This is an account of results in patent US20250134949A1, “PROMININ-1 PEPTIDE FOR TREATING LUNG INJURY” (Children's Medical Center Corporation, priority 2017, published 2025).

No end group written: not given here.

For one data set, the system named is VEGFR2. In words: PR1P induced VEGFR2 phosphorylation in Beas-2B cells with or without SU5416 (FACS). The data set is classed as cell-based, human. The following applies: then PR1P (125 μM) 20 min. The protocol: (§1) It was previously shown in part that PR1P binds VEGF, increases VEGF binding to VEGF receptors, and induces downstream VEGF signaling including the phosphorylation of VEGF receptor 2 and AKT. To determine whether PR1P mediation of VEGF signaling requires VEGFR2 activation, lung epithelial cells (Beas-2B) were treated with the specific VEGFR2 inhibitor SU5416 ([…]) or with vehicle alone as control for 24 hours and then exposed PR1P (125 μM) or vehicle for 20 min. Cells were then harvested and levels of phosphorylated VEGFR2 and AKT were assessed using FACS. […] These findings strongly support the notion that PR1P upregulation of VEGF signaling requires VEGFR-2 activation.
(§2) Serum-starved monolayers of Beas-2B cells were incubated in the presence or absence of SU5416 (20 μM) for 24 h on 10 cm tissue culture plates. After single washing with PBS, the cells were treated with 3 ml of starvation media in the presence of PR1P (125 […]) or vehicle as control for 20 minutes at 37° C. At the conclusion of the experiments, cells were prepared for FACS analysis using standard procedures. Cells were analyzed for levels of phosphorylated VEGFR2 and AKT using anti pAKT and pVEGFR2 antibodies (Cell signaling, Danvers MA).

The subject of a further data set is AKT. Description: PR1P induced AKT phosphorylation in Beas-2B cells with or without SU5416 (FACS). Conditions: then PR1P (125 μM) 20 min. The data set is classed as cell-based, human. On the procedure: as §1, §2
The nature of data set [1]: Observation of ill effects during inhalation studies. It counts as in vivo, mouse. Conditions: 24-hour experimental period, delivered directly into the lungs; data not shown. The source says:
These and similar findings led many to believe that over-expression of VEGF in the lung could be curative in emphysema (54), however, enthusiasm for this type of therapy is tempered by clinical trials using systemic VEGF therapy (41) that were complicated by systemic and pulmonary toxicities including increased vascular permeability leading to hypotension (55) and tissue and lung edema (56, 57). […] The results outlined herein raise the possibility that a strategy to use PR1P to upregulate endogenous VEGF signaling in vivo may avoid toxicity seen with alternative and more conventional forms of VEGF therapy. […] PR1P could be used to avoid complications associated with constitutive VEGF over-expression or systemic VEGF treatment by stabilizing and potentiating the signaling of local endogenous VEGF. It will be important to clearly delineate the fate and pharmacokinetics of PR1P in evaluating its toxicity potential. Because of its small size, PR1P could also be more easily packaged as cargo inside nanometer or micron sized storage vehicles for tissue or cell targeted therapy.
8 week old female C3H/HENCrl (Charles River Laboratories, Cambridge, MA) mice (22±2 g) were placed in a whole-animal nebulization chamber (14×5×8 cm) and allowed to spontaneously inhale (20 min) nebulized LPS (Salmonela enterica, Sigma-Aldrich, St. Louis, MO), PR1P, scrambled peptide (SP), or VEGF. […]

Another data set deals with VEGFR-2. In words: Lung cell VEGFR-2 phosphorylation after inhalation of nebulized peptide (FACS). The data set is classed as in vivo, mouse. Conditions: live mice, nebulized (20 min), lung cells harvested 30 minutes after end of inhalation; compared to SP. From the text:
VEGF mediates cell survival and apoptosis pathways via binding to and activation of VEGFR-2 and signaling through the PI3K/AKT pathway (13). […] To evaluate the effect of PR1P on VEGF signaling in the lung, both FACS and Western blotting were used to measure the levels of phosphorylated VEGFR-2 and AKT in the human lung respiratory epithelial cell line BEAS-2B in response to treatment with PR1P, scrambled peptide (SP), or VEGF. […] To determine whether PR1P also effectively modulated VEGF signaling in the lungs of animals (i.e. whether PR1P was bioactive in-vivo) live mice were treated with nebulized VEGF, SP or PR1P (20 min) and performed FACS analysis on lung cells harvested from treated animals 30 minutes after the end of inhalation. […]
Lungs were harvested from treated animals, cut into small pieces using surgical scissors and suspended and gently stirred in 3 ml serum free BEBM containing Liberase (2 mg ml, Sigma-Aldrich, St. Louis, MO). […] Cells were subsequently washed with FACS media and analyzed by a flow cytometer (BD Biosciences, San Jose, CA, USA) running FlowJo 7.2.2, software (Tomy Digital Biology. Tokyo, Japan).

For data set [2] the following is noted: in vivo; cited from earlier work.

For `Cc1cc(C)c(/C=C2\C(=O)Nc3ccccc32)[nH]1` [SU5416], the “effect of PR1P on the phosphorylation level of VEGFR-2 in presence of inhibitor” value with VEGFR2 is reported as “significantly reduced”. Also, the “effect of PR1P on the phosphorylation level of AKT in presence of inhibitor” value with AKT is “significantly reduced”.

DRVQRQTTTVVA [PR1P, DRVQRQTTTVVA]: the “ill effects from therapy” value in data set [1] is “ill effects were not observed”.

In the case of VEGF, the “lung cell VEGFR-2 phosphorylation” value with VEGFR-2 is listed as “increased pVEGFR2”.

For the compound “elastase: porcine pancreatic elastase (PPE) used intra-tracheally to induce emphysema phenotype”, the “half-life of exogenous elastase administered into the animal lungs” value in data set [2] is “approximately 50 minutes”.
